The target in one experiment is T1, MMP-2 (Homo sapiens, UniProt P08253).
T1 construct: Human MMP-2 full length (aa 1-660)
T1 sequence (P08253 30-660): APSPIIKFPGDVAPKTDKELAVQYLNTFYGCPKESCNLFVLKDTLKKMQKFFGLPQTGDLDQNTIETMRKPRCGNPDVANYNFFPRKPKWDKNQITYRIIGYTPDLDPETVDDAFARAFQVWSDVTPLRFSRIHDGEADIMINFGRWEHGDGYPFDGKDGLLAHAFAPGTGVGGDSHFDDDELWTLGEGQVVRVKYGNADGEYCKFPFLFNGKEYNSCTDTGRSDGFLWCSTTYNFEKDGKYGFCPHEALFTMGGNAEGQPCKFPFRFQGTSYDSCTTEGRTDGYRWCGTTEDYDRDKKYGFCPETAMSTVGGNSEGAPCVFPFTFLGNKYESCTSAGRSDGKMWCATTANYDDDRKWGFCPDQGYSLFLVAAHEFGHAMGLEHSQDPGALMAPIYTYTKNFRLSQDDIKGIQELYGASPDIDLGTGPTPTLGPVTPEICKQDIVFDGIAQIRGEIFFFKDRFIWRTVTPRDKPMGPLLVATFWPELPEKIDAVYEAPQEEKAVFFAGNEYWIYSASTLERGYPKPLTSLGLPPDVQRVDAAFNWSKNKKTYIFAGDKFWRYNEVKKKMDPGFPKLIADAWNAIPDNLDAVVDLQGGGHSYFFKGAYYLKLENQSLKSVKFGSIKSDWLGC
Briefly: MMP enzymatic assay (Trupoint peptide), MMP-2. It is filed as biochemical. How it is done:
[formula] • 1) Prepare appropriate 1×MMP assay buffer from 10× stock. […] Need to prepare a 2.5× concentration stock (2.5 μM) to achieve this concentration in 50 μl. Dilute compound to 2.5 mM in 100% DMSO (a 1:40 dilution), then dilute the 2.5 mM compound to 2.5 μM (1:1000) into 1× assay buffer. Make 1 ml 2.5 μM compound in assay buffer. • 4) Fill the rows B through P of a 384-well plate with assay buffer+0.1% DMSO. • 5) Add 30 ul of the 2.5 μM compound in assay buffer to the top row of the plate, doing each compound in triplicate. The plate setup should be as follows, using GM6001 as plate reference compound:
• 6) Serially dilute 10 μl down the plate to achieve 1:3 dilutions in subsequent wells. After each dilution, change pipette tips to avoid compound carryover. Discard the remaining 10 μl after diluting into the final row. • 7) Prepare enzyme dilutions at 2.5× of final desired concentration (see below). Will need 10 ml enzyme solution per plate. Add enzyme to plate, 20 μl per well. Incubate 1 hr.
• 8) Dilute the 500 μM Trupoint peptide 1:1000 into assay buffer to achieve a 5× working stock of 500 nM. Prepare 5 ml total per plate. Add 10 ul of substrate to each well to achieve a final concentration of 100 nM in well. Also prepare background subtraction wells by adding 10 μl 5× substrate to 40 μl assay buffer per well, typically do ˜32 wells. • 9) Incubate assay at room temperature for 15 min. Read in plate reader.
(§1) Analysis Specifications • Calculate average background value from substrate/assay buffer wells • Subtract this from entire plate • Calculate average of DMSO wells for each enzyme. This is the positive control, 100% value. • For each well, calculate percent of control by dividing well value by the average DMSO value obtained above. • Paste percent of control values into Graphpad Prism 4.0.

The target of a further experiment is T2, MMP-9 (Homo sapiens, UniProt P14780).
T2 construct: Human MMP-9 catalytic domain (aa 107-446)
T2 sequence (P14780 107-446): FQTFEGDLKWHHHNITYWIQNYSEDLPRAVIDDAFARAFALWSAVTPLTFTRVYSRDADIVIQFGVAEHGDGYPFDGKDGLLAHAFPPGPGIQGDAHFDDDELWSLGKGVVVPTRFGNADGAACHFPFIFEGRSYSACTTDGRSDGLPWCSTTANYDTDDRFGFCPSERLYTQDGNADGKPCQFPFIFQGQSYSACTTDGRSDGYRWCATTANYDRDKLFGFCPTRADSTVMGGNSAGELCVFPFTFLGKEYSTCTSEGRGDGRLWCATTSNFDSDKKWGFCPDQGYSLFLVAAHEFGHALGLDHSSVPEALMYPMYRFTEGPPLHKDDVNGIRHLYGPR
The experiment in a line: MMP enzymatic assay (Trupoint peptide), MMP-9. It is filed as biochemical. Here is the method: [formula] • 1) Prepare appropriate 1×MMP assay buffer from 10× stock. […] The plate setup should be as follows, using GM6001 as plate reference compound:
• 6) Serially dilute 10 μl down the plate to achieve 1:3 dilutions in subsequent wells. After each dilution, change pipette tips to avoid compound carryover. […] Will need 10 ml enzyme solution per plate. Add enzyme to plate, 20 μl per well. Incubate 1 hr.
Prepare 5 ml total per plate. Add 10 ul of substrate to each well to achieve a final concentration of 100 nM in well. […] Read in plate reader.
as §1

We go through 24 compounds from US7803793B2, “Heterocyclic derived metalloprotease inhibitors” (Janssen Pharmaceutica NV, priority 2006, dated 2010).

SMILES strings stand for the structures. Like-named read-outs stand apart in the source and are kept apart here.

For `CC1=CC[C@@H](NS(=O)(=O)c2ccc(Oc3ccc(Cl)cc3)cc2)C(=O)N(O)C1` [Compound 20, (R)-4-(4-Chloro-phenoxy)-N-(1-hydroxy-6-methyl-2-oxo-2,3,4,7-tetrahydro-1H-azepin-3-yl)-benzenesulfonamide], the IC50 against MMP-2 was determined as 0.72 nM; at MMP-9 it was 0.68 nM.

Turning to `CC1CN(CC2=CC[C@@H](NS(=O)(=O)c3ccc(Oc4ccc(Cl)cc4)cc3)C(=O)N(O)C2)CC(C)O1` (stereo partly drawn) [Compound 21, (R)-4-(4-Chloro-phenoxy)-N-[6-(2,6-dimethyl-morpholin-4-ylmethyl)-1-hydroxy-2-oxo-2,3,4,7-tetrahydro-1H-azepin-3-yl]-benzenesulfonamide], the IC50 on MMP-2 was 1.25 nM; on MMP-9, 0.89 nM.

On to `O=c1c(N(Cc2ccccc2)S(=O)(=O)c2ccc(Oc3ccccc3)cc2)cccn1O` [Compound 22, N-Benzyl-N-(1-hydroxy-2-oxo-1,2-dihydro-pyridin-3-yl)-4-phenoxy-benzene-sulfonamide], for which the IC50 on MMP-2 (read-out: MMP-2 nM IC50) is 22.4 nM; against MMP-9 it was 33.4 nM.

With `O=S(=O)(c1ccc(Oc2ccccc2)cc1)N(Cc1ccccc1)c1cccn(O)c1=S` [Compound 23, N-Benzyl-N-(1-hydroxy-2-thioxo-1,2-dihydro-pyridin-3-yl)-4-phenoxy-benzene-sulfonamide], the IC50 was 4590 nM at MMP-2 (read-out: MMP-2 nM IC50) and 693 nM against MMP-9.

As for `CC(C)CN(c1cccn(O)c1=O)S(=O)(=O)c1ccc(Oc2ccccc2)cc1` [Compound 24, N-(1-Hydroxy-2-oxo-1,2-dihydro-pyridin-3-yl)-N-isobutyl-4-phenoxy-benzenesulfonamide], the IC50 at MMP-2 was 41 nM; against MMP-9, 57.5 nM.

Turning to `CN(c1cccn(O)c1=O)S(=O)(=O)c1ccc(Oc2ccccc2)cc1` [Compound 25, N-(1-Hydroxy-2-oxo-1,2-dihydro-pyridin-3-yl)-N-methyl-4-phenoxy-benzene-sulfonamide], the concentration for half-maximal inhibition (IC50) is 1.52 nM against MMP-2 and 1.41 nM against MMP-9.

`CCN(c1cccn(O)c1=O)S(=O)(=O)c1ccc(Oc2ccc(C)cc2)cc1` [Compound 27, N-Ethyl-N-(1-hydroxy-2-oxo-1,2-dihydro-pyridin-3-yl)-4-p-tolyloxy-benzene-sulfonamide]: the results for the half-maximal inhibitory concentration (IC50) on MMP-2 and against MMP-9 were 6.5 nM and 3.6 nM, respectively.

In the case of `CN(c1cccn(O)c1=O)S(=O)(=O)c1ccc(Oc2ccc(Cl)cc2)cc1` [Compound 28, 4-(4-Chloro-phenoxy)-N-(1-hydroxy-2-oxo-1,2-dihydro-pyridin-3-yl)-N-methyl-benzenesulfonamide], the results for the IC50 against MMP-2 and against MMP-9 were 6.9 nM and 3.28 nM, respectively.

For the compound `COc1ccc(Oc2ccc(S(=O)(=O)N(C)c3cccn(O)c3=O)cc2)cc1` [Compound 29, N-(1-Hydroxy-2-oxo-1,2-dihydro-pyridin-3-yl)-4-(4-methoxy-phenoxy)-N-methyl-benzenesulfonamide], the values for the half-inhibitory concentration (IC50) at MMP-2 (read-out: MMP-2 nM IC50) and on MMP-9 were 5.6 nM and 0.87 nM, respectively.

On to `Cc1ccc(N(C)S(=O)(=O)c2ccc(Oc3ccc(Cl)cc3)cc2)c(=O)n1O` [Compound 33, 4-(4-Chloro-phenoxy)-N-(1-hydroxy-6-methyl-2-oxo-1,2-dihydro-pyridin-3-yl)-N-methyl-benzenesulfonamide], for which the 50% inhibitory concentration (IC50) was determined as 66.4 nM at MMP-2 (read-out: MMP-2 nM IC50) and 34.9 nM against MMP-9.

For `Cc1ccc(Oc2ccc(S(=O)(=O)N(CCN3CCOCC3)c3cccn(O)c3=O)cc2)cc1` [Compound 34, N-(1-Hydroxy-2-oxo-1,2-dihydro-pyridin-3-yl)-N-(2-morpholin-4-yl-ethyl)-4-p-tolyloxy-benzenesulfonamide], the half-inhibitory concentration (IC50) at MMP-2 worked out at 3.5 nM; against MMP-9, 2.41 nM.

Regarding `O=C(CN(c1cccn(O)c1=O)S(=O)(=O)c1ccc(Oc2ccc(Cl)cc2)cc1)N1CCOCC1` [Compound 35, 4-(4-Chloro-phenoxy)-N-(1-hydroxy-2-oxo-1,2-dihydro-pyridin-3-yl)-N-(2-morpholin-4-yl-2-oxo-ethyl)-benzenesulfonamide], the IC50 at MMP-2 (read-out: MMP-2 nM IC50) worked out at 4.93 nM; on MMP-9, 4.84 nM.

On to `CN(c1cccn(O)c1=O)S(=O)(=O)c1ccc(-c2ccc(Cl)cc2)cc1` [Compound 36, 4′-Chloro-biphenyl-4-sulfonic acid (1-hydroxy-2-oxo-1,2-dihydro-pyridin-3-yl)-methyl-amide], for which the concentration for half-maximal inhibition (IC50) against MMP-2 came to 1300 nM; on MMP-9, 1800 nM.

`O=c1c(NS(=O)(=O)c2ccc(Oc3ccc(Cl)cc3)cc2)cccn1O` [Compound 37, 4-(4-Chloro-phenoxy)-N-(1-hydroxy-2-oxo-1,2-dihydro-pyridin-3-yl)-benzene-sulfonamide]: the IC50 on MMP-2 (read-out: MMP-2 nM IC50) was 242 nM; against MMP-9, 316 nM.

In the case of `Cc1ccc(Oc2ccc(S(=O)(=O)Nc3cccn(O)c3=O)cc2)cc1` [Compound 38], the IC50 worked out at 49.8 nM against MMP-2 and 64.6 nM against MMP-9.

Regarding `CN(c1cccn(O)c1=O)S(=O)(=O)c1ccc(Oc2ccc(OC(F)(F)F)cc2)cc1` [Compound 39, N-(1-Hydroxy-2-oxo-1,2-dihydro-pyridin-3-yl)-N-methyl-4-(4-trifluoro-methoxy-phenoxy)-benzenesulfonamide], the IC50 at MMP-2 (read-out: MMP-2 nM IC50) amounted to 5.75 nM; against MMP-9, 1.85 nM.

As for `O=c1c(NS(=O)(=O)c2ccc(-c3ccc(Cl)cc3)cc2)cccn1O` [Compound 40, 4′-Chloro-biphenyl-4-sulfonic acid (1-hydroxy-2-oxo-1,2-dihydro-pyridin-3-yl)-amide], the concentration for half-maximal inhibition (IC50) at MMP-2 and against MMP-9 was more than 1000 nM throughout.

With `O=c1c(COc2ccc(-c3ccc(Br)cc3)cc2)cccn1O` [Compound 41, 3-(4′-Bromo-biphenyl-4-yloxymethyl)-1-hydroxy-1H-pyridin-2-one], the IC50 against MMP-2 is more than 10000 nM; against MMP-9, 7140 nM.

With `Cc1ccc(Oc2ccc(N(Cc3cccn(O)c3=O)S(C)(=O)=O)cc2)cc1` [Compound 42, N-(1-Hydroxy-2-oxo-1,2-dihydro-pyridin-3-ylmethyl)-N-(4-p-tolyloxy-phenyl)-methanesulfonamide], the IC50 on MMP-2 worked out at 208 nM; against MMP-9, 46.9 nM.

In the case of `CS(=O)(=O)N(Cc1cccn(O)c1=O)c1ccc(Oc2ccc(C(F)(F)F)cc2)cc1` [Compound 43, N-(1-Hydroxy-2-oxo-1,2-dihydro-pyridin-3-ylmethyl)-N-[4-(4-trifluoromethyl-phenoxy)-phenyl]-methanesulfonamide], the IC50 worked out at 491 nM against MMP-2 and 233 nM at MMP-9.

For `CS(=O)(=O)N(Cc1cccn(O)c1=O)c1ccc(Oc2ccc(Cl)cc2)cc1` [Compound 44, N-[4-(4-Chloro-phenoxy)-phenyl]-N-(1-hydroxy-2-oxo-1,2-dihydro-pyridin-3-ylmethyl)-methanesulfonamide], the IC50 against MMP-2 was 406 nM; against MMP-9, 126 nM.

For the compound `CCCCc1ccc(N(Cc2cccn(O)c2=O)S(C)(=O)=O)cc1` [Compound 45, N-(4-Butyl-phenyl)-N-(1-hydroxy-2-oxo-1,2-dihydro-pyridin-3-ylmethyl)-methane-sulfonamide], the IC50 against MMP-2 and on MMP-9 was more than 1000 nM throughout.

Regarding `CCCCOc1ccc(N(Cc2cccn(O)c2=O)S(C)(=O)=O)cc1` [Compound 46, N-(4-Butoxy-phenyl)-N-(1-hydroxy-2-oxo-1,2-dihydro-pyridin-3-ylmethyl)-methanesulfonamide], the IC50 against MMP-2 and on MMP-9 was more than 1000 nM throughout.

Take `Cc1ccc(Oc2ccc(N(Cc3cccn(O)c3=S)S(C)(=O)=O)cc2)cc1` [Compound 47, N-(1-Hydroxy-2-thioxo-1,2-dihydro-pyridin-3-ylmethyl)-N-(4-p-tolyloxy-phenyl)-methanesulfonamide]: the IC50 is more than 1000 nM against MMP-2 and 486 nM against MMP-9.
